Among the data in US11427558B1, “Indazoles and azaindazoles as LRRK2 inhibitors” (ESCAPE Bio, Inc., priority 2019, dated 2022) are IC50 values, retold here.

The structures appear in SMILES notation. pIC50: −log10 of the molar value. Where only a bound is given, the exact number is not on record here.

Assay [1] concerns the target Recombinant wild type LRRK2 protein (Homo sapiens (Human), UniProt Q5S007). The assay can be described thus: LRRK2 kinase activity, LanthaScreen TR-FRET assay (wild type). To be noted: LRRKtide 400 nM, 25 μM ATP, 60 min; read-out: LRRK2 WT IC50. It is filed as biochemical. In outline: (§1)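 Recombinant human wild-type or G2019S LRRK2 phosphorylated fluorescein-labelled LRRKtide (ERM-based) with ATP and serially diluted compound for 60 min at room temperature.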

In assay [2] the target is Recombinant G2019S-LRRK2 protein (Homo sapiens (Human), UniProt Q5S007, G2019S). The experiment in a line: LRRK2 kinase activity, LanthaScreen TR-FRET assay (G2019S). It is filed as biochemical. To be noted: LRRKtide 400 nM, 25 μM ATP, 60 min. In short, it runs like this: as §1
Recombinant G2019S-LRRK2 protein, sequence (Q5S007 whole entry G2019S): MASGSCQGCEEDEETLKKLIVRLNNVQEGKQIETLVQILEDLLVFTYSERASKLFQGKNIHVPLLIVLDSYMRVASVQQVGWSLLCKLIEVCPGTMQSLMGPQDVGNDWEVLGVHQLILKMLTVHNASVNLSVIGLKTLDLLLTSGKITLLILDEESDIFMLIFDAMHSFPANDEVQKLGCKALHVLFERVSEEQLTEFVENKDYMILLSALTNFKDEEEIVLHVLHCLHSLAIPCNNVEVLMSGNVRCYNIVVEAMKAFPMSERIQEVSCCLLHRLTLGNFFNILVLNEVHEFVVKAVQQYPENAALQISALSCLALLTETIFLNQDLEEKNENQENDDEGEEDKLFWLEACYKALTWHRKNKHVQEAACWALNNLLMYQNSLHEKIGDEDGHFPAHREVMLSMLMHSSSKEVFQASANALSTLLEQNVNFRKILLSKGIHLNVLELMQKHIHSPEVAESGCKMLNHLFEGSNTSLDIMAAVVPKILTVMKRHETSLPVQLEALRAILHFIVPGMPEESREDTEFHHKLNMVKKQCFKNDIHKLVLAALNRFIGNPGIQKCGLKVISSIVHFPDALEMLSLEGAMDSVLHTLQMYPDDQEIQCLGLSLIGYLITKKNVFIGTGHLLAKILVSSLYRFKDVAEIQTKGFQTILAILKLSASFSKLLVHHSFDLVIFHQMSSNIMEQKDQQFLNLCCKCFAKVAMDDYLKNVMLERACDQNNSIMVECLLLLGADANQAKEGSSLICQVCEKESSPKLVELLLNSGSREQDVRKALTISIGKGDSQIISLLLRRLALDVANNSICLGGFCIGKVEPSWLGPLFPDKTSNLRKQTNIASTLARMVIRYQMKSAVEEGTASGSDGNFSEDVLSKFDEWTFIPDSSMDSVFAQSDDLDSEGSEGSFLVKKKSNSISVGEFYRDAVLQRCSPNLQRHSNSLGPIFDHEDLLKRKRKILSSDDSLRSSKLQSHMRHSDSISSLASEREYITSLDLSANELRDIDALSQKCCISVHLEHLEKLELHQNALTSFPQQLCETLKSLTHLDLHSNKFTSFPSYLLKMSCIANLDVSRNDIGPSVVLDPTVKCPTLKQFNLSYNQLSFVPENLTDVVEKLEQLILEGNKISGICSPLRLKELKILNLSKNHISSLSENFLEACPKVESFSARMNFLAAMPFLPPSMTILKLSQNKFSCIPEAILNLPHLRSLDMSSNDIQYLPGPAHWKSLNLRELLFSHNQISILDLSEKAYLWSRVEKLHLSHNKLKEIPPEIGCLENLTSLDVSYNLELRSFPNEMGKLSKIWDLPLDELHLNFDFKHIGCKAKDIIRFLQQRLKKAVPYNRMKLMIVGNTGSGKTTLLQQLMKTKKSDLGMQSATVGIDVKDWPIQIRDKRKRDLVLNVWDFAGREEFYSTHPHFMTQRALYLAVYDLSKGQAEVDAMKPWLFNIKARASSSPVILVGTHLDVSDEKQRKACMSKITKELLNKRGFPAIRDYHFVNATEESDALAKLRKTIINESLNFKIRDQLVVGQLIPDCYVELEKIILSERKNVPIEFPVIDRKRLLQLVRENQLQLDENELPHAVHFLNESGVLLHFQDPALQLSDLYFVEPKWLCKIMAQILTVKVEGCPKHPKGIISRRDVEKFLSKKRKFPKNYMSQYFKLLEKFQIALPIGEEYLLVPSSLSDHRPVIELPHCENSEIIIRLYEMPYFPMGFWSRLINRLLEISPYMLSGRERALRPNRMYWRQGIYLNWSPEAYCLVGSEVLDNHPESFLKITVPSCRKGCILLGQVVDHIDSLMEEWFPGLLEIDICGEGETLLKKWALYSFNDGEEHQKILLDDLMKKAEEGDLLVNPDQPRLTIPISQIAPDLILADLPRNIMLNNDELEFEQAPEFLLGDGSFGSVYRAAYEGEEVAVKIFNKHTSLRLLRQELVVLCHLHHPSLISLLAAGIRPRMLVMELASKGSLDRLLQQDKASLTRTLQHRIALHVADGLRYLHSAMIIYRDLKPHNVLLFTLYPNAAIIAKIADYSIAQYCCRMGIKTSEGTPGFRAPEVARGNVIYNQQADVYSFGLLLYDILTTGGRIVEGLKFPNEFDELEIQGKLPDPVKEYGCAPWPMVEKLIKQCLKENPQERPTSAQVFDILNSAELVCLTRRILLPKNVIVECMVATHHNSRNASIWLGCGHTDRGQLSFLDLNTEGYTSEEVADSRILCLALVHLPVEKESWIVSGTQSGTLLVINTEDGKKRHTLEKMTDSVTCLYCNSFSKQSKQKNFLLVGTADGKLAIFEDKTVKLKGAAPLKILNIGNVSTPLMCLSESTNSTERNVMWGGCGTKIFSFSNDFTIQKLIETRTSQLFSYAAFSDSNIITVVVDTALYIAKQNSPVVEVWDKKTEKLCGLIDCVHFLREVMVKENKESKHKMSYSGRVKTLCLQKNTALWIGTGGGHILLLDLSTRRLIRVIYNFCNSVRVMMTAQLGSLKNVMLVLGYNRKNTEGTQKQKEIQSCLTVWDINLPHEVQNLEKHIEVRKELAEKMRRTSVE

Recombinant wild type LRRK2 protein, sequence (Q5S007 whole entry): as the sequence (Q5S007 whole entry G2019S) above, with S2019G counted along it

Take `COc1nc(C(=O)Nc2ccc3[nH]nc(Cl)c3c2)c(C)c(C)c1C#N` [Example 321, N-(3-Chloro-1H-indazol-5-yl)-5-cyano-6-methoxy-3,4-dimethylpicolinamide]: the pIC50 (usually the negative decadic logarithm of the IC50, by convention in mol/L) is 6.00 to 7.00 in assay [1] and over 7.00 in assay [2].
For the compound `N#Cc1ccc(C(=O)Nc2ccc3[nH]nc(-c4ccoc4)c3c2)cn1` [Example 9, 6-Cyano-N-(3-(furan-3-yl)-1H-indazol-5-yl)nicotinamide], the pIC50 in assay [1] is 6.00 to 7.00; in assay [2], over 7.00.
For the compound `N#Cc1ccnc(C(=O)Nc2ccc3[nH]nc(-c4ccoc4)c3c2)c1Cl` [Example 144, 3-Chloro-4-cyano-N-(3-(furan-3-yl)-1H-indazol-5-yl)picolinamide], the pIC50 in assay [1] and in assay [2] was over 7.00 in each case.
For the compound `Cc1c(C(=O)Nc2ccc3[nH]nc(C4CC4)c3c2)nc(Br)c(C#N)c1C` [Example 330, 6-Bromo-5-cyano-N-(3-cyclopropyl-1H-indazol-5-yl)-3,4-dimethylpicolinamide], the pIC50 in assay [1] and in assay [2] was over 7.00 throughout.
